Assay results: patent US12122763B2, “Substituted piperidines for androgen receptor degradation” (UBIX THERAPEUTICS, INC., priority 2020, dated 2024)

Columns and labels:
Type in all cases: cell-based
[1] = molecular target: T1, Androgen Receptor (AR) protein (Homo sapiens, UniProt P10275, T878A); test: Androgen Receptor (AR) protein degradation assay in LNCaP cells, western blotting; conditions: 20 h; for inhibition at 0.01 µM: 0.01 μM compound; for inhibition at 0.1 µM: 0.1 μM compound; for inhibition at 1 µM: 1 μM compound; for inhibition at 10 µM: 10 μM compound
T1 construct: endogenous in cells; host or cells: LNCaP
T1 sequence (P10275 whole entry T878A): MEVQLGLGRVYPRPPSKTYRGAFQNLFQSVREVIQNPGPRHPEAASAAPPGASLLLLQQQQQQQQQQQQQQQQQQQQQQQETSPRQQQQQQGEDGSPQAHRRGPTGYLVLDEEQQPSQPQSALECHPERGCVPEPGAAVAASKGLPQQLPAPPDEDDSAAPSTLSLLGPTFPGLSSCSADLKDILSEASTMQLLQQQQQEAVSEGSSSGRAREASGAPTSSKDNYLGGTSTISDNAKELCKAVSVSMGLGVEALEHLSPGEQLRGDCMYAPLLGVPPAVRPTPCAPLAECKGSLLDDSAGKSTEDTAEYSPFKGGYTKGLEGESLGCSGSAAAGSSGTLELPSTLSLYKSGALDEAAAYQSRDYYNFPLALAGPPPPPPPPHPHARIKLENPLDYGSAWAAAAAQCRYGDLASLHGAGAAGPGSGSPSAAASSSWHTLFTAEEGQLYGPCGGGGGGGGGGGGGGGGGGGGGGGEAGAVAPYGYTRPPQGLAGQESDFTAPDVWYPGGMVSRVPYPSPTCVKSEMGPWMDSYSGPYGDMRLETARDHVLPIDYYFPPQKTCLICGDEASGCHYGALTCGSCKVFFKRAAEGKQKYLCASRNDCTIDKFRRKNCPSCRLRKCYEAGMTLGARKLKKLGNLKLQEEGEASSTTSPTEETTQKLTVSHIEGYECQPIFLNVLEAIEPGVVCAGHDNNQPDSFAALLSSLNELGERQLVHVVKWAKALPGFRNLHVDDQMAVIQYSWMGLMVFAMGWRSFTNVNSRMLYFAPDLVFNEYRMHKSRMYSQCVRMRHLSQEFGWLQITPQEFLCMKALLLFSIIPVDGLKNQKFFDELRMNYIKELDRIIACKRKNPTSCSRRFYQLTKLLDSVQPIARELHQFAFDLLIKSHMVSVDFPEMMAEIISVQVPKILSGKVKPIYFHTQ
T1 sequence (Q96SW2 whole entry partner): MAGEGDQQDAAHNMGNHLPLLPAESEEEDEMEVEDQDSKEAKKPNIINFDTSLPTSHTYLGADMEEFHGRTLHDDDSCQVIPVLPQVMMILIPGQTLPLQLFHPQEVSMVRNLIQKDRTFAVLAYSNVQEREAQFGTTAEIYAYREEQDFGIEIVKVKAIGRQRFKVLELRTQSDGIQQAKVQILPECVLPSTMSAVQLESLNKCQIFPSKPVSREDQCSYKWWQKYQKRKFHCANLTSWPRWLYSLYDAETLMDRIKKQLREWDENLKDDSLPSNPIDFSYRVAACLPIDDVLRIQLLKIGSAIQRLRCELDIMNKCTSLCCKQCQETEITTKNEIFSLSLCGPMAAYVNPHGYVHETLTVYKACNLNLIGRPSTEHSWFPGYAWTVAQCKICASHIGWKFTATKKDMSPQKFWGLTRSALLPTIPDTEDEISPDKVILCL
Procedure, shortened: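 AR protein level was detected by western blot (ECL) against GAPDH or β-actin controls, with 8 μg lysate protein loaded per lane after BCA quantification. Lysates came from LNCaP cells exposed to test compound for 20 h, following 3 days of growth in RPMI/10% FBS.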

[2] = molecular target: T877A AR mutant (Homo sapiens, UniProt P10275, T878A); test: Degradation of AR mutant T877A; conditions: at a concentration of 100 nM
Sequence of T877A AR mutant (P10275 whole entry T878A): as the sequence (P10275 whole entry T878A) above
Sequence of T877A AR mutant (Q96SW2 whole entry partner): as the sequence (Q96SW2 whole entry partner) above
Excerpt: On the other hand, the compounds of the present invention have excellent degradation activity against AR mutants (T877A, M896V, F876L, H874Y, L702H, W741C, etc.). Since resistance to existing anti-androgen receptor drugs can be caused by AR mutation, the excellent AR mutant-degrading activity of the compounds of the present invention can help overcome resistance to existing drugs.

[3] = molecular target: T2, AR-V7 (Homo sapiens, UniProt P10275); test: Reduction of expression of AR splicing variant AR-V7; conditions: at a concentration of 100 nM
T2 sequence (P10275 1-644 isoform P10275-3): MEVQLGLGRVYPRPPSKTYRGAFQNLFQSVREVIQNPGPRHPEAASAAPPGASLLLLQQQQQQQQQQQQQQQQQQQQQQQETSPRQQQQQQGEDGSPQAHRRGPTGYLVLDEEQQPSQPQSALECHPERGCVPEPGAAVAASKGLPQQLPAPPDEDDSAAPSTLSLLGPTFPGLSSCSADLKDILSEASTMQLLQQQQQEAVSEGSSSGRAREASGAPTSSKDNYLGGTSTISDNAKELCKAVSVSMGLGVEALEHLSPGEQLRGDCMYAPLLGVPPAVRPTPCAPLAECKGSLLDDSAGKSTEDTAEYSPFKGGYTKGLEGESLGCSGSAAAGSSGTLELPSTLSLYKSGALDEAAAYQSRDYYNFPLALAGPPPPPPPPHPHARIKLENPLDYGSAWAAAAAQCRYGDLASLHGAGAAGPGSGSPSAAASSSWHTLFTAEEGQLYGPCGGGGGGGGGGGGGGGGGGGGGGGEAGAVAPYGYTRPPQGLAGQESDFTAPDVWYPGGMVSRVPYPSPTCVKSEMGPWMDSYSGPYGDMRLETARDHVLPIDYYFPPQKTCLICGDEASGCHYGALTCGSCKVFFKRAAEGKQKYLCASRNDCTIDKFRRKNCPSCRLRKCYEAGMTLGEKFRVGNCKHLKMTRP
Excerpt: In addition, another mechanism by which resistance to existing treatments occurs is the expression of AR splicing variants (eg, AR-V7). The compounds of the present invention are excellent in reducing the expression of these variants (eg, AR-V7), and thus have a better anti-proliferative effect in AR-V7 positive prostate cancer cells. For example, the compounds of Examples 6 and 169 of the present disclosure inhibited the expression of AR-V7 by 87% and 48%, respectively, at a concentration of 100 nM.

| SMILES | inhibition at 0.01 µM [1] [%] | inhibition at 0.1 µM [1] [%] | inhibition at 1 µM [1] [%] | inhibition at 10 µM [1] [%] | degradation activity for the T877A AR mutant [2] [%] | inhibited the expression of AR-V7 [3] [%] |
| --- | --- | --- | --- | --- | --- | --- |
| N#Cc1ccc(N2CCC(C(=O)Nc3ccc(N4CCC(CN5CC6(CCN(c7ccc8c(c7)C(=O)N(C7CCC(=O)NC7=O)C8=O)CC6)C5)CC4)cn3)CC2)cc1C(F)(F)F (centres unmarked) [Example 49, 1-(4-cyano-3-(trifluoromethyl)phenyl)-N-(5-(4-((7-(2-(2,6-dioxopiperidin-3-yl)-1,3-dioxoisoindolin-5-yl)-2,7-diazaspiro[3.5]nonan-2-yl)methyl)piperidin-1-yl)pyridin-2-yl)piperidine-4-carboxamide] | 68 | 98 | 99 | 99 | 46 | – |
| N#Cc1ccc(N2CCC(C(=O)Nc3ccc(OC4CCN(CC5CCN(c6ccc7c(c6)C(=O)N(C6CCC(=O)NC6=O)C7=O)CC5)CC4)cn3)CC2)cc1C(F)(F)F (centres unmarked) [Example 169, 1-(4-cyano-3-(trifluoromethyl)phenyl)-N-(5-((1-((1-(2-(2,6-dioxopiperidin-3-yl)-1,3-dioxoisoindolin-5-yl)piperidin-4-yl)methyl)piperidin-4-yl)oxy)pyridin-2-yl)piperidine-4-carboxamide] | 85 | 99 | 99 | – | – | 48 |
| N#Cc1ccc(N2CCC(C(=O)Nc3ccc(N4CCC(CN5CCN(CC6CCN(c7ccc8c(c7)C(=O)N(C7CCC(=O)NC7=O)C8=O)CC6)CC5)CC4)cn3)CC2)cc1C(F)(F)F (centres unmarked) [Example 6, 1-(4-cyano-3-(trifluoromethyl)phenyl)-N-(5-(4-((4-((1-(2-(2,6-dioxopiperidin-3-yl)-1,3-dioxoisoindolin-5-yl)piperidin-4-yl)methyl)piperazin-1-yl)methyl)piperidin-1-yl)pyridin-2-yl)piperidine-4-carboxamide] | 83 | 99 | 99 | 97 | 73 | 87 |
| N#Cc1ccc(N2CCC(C(=O)Nc3ccc(N4CCC(CN5CC6(CCN(c7ccc8c(c7)C(=O)N(C7CCC(=O)NC7=O)C8=O)CC6)C5)CC4)nc3)CC2)cc1Cl (centres unmarked) [Example 60, 1-(3-chloro-4-cyanophenyl)-N-(6-(4-((7-(2-(2,6-dioxopiperidin-3-yl)-1,3-dioxoisoindolin-5-yl)-2,7-diazaspiro[3.5]nonan-2-yl)methyl)piperidin-1-yl)pyridin-3-yl)piperidine-4-carboxamide] | 16 | 32 | 32 | 66 | – | – |
| N#Cc1ccc(N2CCC(C(=O)Nc3ccc(CN4CCC(CN5CCN(c6cc7c(cc6F)C(=O)N(C6CCC(=O)NC6=O)C7=O)CC5)CC4)cn3)CC2)cc1C(F)(F)F (centres unmarked) [Example 188, 1-(4-cyano-3-(trifluoromethyl)phenyl)-N-(5-((4-((4-(2-(2,6-dioxopiperidin-3-yl)-6-fluoro-1,3-dioxoisoindolin-5-yl)piperazin-1-yl)methyl)piperidin-1-yl)methyl)pyridin-2-yl)piperidine-4-carboxamide] | 1 | 45 | – | – | – | – |
| N#Cc1ccc(N2CCC(C(=O)Nc3ccc(OC4CCN(CC5CCN(c6ccc7c(c6)C(=O)N(C6CCC(=O)NC6=O)C7=O)CC5)CC4)nn3)CC2)cc1C(F)(F)F (centres unmarked) [Example 187, 1-(4-cyano-3-(trifluoromethyl)phenyl)-N-(6-((1-((1-(2-(2,6-dioxopiperidin-3-yl)-1,3-dioxoisoindolin-5-yl)piperidin-4-yl)methyl)piperidin-4-yl)oxy)pyridazin-3-yl)piperidine-4-carboxamide] | 63 | 90 | – | – | – | – |
| N#Cc1ccc(N2CCC(F)(C(=O)Nc3ccc(N4CCC(CN5CCN(CC6CCN(c7ccc8c(c7)CN(C7CCC(=O)NC7=O)C8=O)CC6)CC5)CC4)cn3)CC2)cc1C(F)(F)F (centres unmarked) [Example 144, 1-(4-cyano-3-(trifluoromethyl)phenyl)-N-(5-(4-((4-((1-(2-(2,6-dioxopiperidin-3-yl)-1-oxoisoindolin-5-yl)piperidin-4-yl)methyl)piperazin-1-yl)methyl)piperidin-1-yl)pyridin-2-yl)-4-fluoropiperidine-4-carboxamide] | 43 | 84 | 95 | – | – | – |
| N#Cc1ccc(N2CCC(C(=O)Nc3ccc(CC4CCN(CC5CCN(c6cc7c(cc6F)C(=O)N(C6CCC(=O)NC6=O)C7=O)CC5)CC4)cn3)CC2)cc1C(F)(F)F (centres unmarked) [Example 182, 1-(4-cyano-3-(trifluoromethyl)phenyl)-N-(5-((1-((1-(2-(2,6-dioxopiperidin-3-yl)-6-fluoro-1,3-dioxoisoindolin-5-yl)piperidin-4-yl)methyl)piperidin-4-yl)methyl)pyridin-2-yl)piperidine-4-carboxamide] | 72 | 96 | 98 | – | – | – |
| N#Cc1ccc(N2CCC(C(=O)Nc3ccc(N4CCC(CN5CCN(C[C@@H]6CCN(c7ccc8c(c7)C(=O)N(C7CCC(=O)NC7=O)C8=O)C6)CC5)CC4)cn3)CC2)cc1C(F)(F)F (stereo partly drawn) [Example 15, 1-(4-cyano-3-(trifluoromethyl)phenyl)-N-(5-(4-((4-(((3S)-1-(2-(2,6-dioxopiperidin-3-yl)-1,3-dioxoisoindolin-5-yl)pyrrolidin-3-yl)methyl)piperazin-1-yl)methyl)piperidin-1-yl)pyridin-2-yl)piperidine-4-carboxamide] | 60 | 97 | 98 | – | – | – |
| C[C@@H]1CN(CC2CCN(c3ccc(NC(=O)C4CCN(c5ccc(C#N)c(C(F)(F)F)c5)CC4)nc3)CC2)CCN1CC1CCN(c2ccc3c(n2)CN(C2CCC(=O)NC2=O)C3=O)CC1 (stereo partly drawn) [Example 47, 1-(4-cyano-3-(trifluoromethyl)phenyl)-N-(5-(4-(((3R)-4-((1-(6-(2,6-dioxopiperidin-3-yl)-5-oxo-6,7-dihydro-5H-pyrrolo[3,4-b]pyridin-2-yl)piperidin-4-yl)methyl)-3-methylpiperazin-1-yl)methyl)piperidin-1-yl)pyridin-2-yl)piperidine-4-carboxamide] | 65 | 95 | 89 | – | – | – |
| N#Cc1ccc(N2CCC(C(=O)Nc3ccc(N4CCC(CCN5CC(N6CCN(c7ccc8c(n7)CN(C7CCC(=O)NC7=O)C8=O)CC6)C5)CC4)cn3)CC2)cc1C(F)(F)F (centres unmarked) [Example 98, 1-(4-cyano-3-(trifluoromethyl)phenyl)-N-(5-(4-(2-(3-(4-(6-(2,6-dioxopiperidin-3-yl)-5-oxo-6,7-dihydro-5H-pyrrolo[3,4-b]pyridin-2-yl)piperazin-1-yl)azetidin-1-yl)ethyl)piperidin-1-yl)pyridin-2-yl)piperidine-4-carboxamide] | 48 | 89 | 76 | – | – | – |
| N#Cc1ccc(N2CCC(C(=O)Nc3ccc(N4CCC(CN5CCN(C[C@H]6CCN(c7ccc8c(n7)CN(C7CCC(=O)NC7=O)C8=O)C6)CC5)CC4)cn3)CC2)cc1C(F)(F)F (stereo partly drawn) [Example 39, 1-(4-cyano-3-(trifluoromethyl)phenyl)-N-(5-(4-((4-(((3R)-1-(6-(2,6-dioxopiperidin-3-yl)-5-oxo-6,7-dihydro-5H-pyrrolo[3,4-b]pyridin-2-yl)pyrrolidin-3-yl)methyl)piperazin-1-yl)methyl)piperidin-1-yl)pyridin-2-yl)piperidine-4-carboxamide] | 80 | 98 | 95 | – | – | – |
